Data on 2 molecules can be found in ChEMBL document CHEMBL3351589, “Novel chalcone derivatives as hypoxia-inducible factor (HIF)-1 inhibitor: synthesis, anti-invasive and anti-angiogenic properties” (Eur J Med Chem, 2015).

Active and inactive are the calls of the source. The calls are words filed in the database; no cut-off is given here.

Series [1] in a line: Reduction of hypoxia-induced HIF-1 beta expression in human Hep3B cells at 10 uM after 48 hrs by Western blotting analysis. It counts as functional, cell-based. The following applies: Hep 3B2.
Series [2] can be described thus: Reduction of hypoxia-induced HIF-1 alpha expression in human Hep3B cells at 10 uM after 48 hrs by Western blotting analysis. It counts as functional, cell-based. The note with it: Hep 3B2.
A short description of series [3]: Reduction of hypoxia-induced VEGF mRNA expression in human Hep3B cells after 48 hrs by RT-PCR analysis. Format: functional, cell-based. The note with it: Hep 3B2.
Series [4] concerns Hep 3B2. Description: Antitumor activity against human Hep3B cells xenografted in Balb/c nude mouse assessed as reduction in MMP-2 expression at 2.5 to 5 mg/kg, iv by immunohistochemical analysis. Format: functional, organism-based.
A short description of series [5]: Acute toxicity in Swiss mouse assessed as mortality rate at 200 mg/kg, iv after 14 days relative to control. Format: organism-based. The arrangement: dose 200 mg/kg, route intravenous. The following applies: in vivo.
Series [6] relates to Hep 3B2. Description: Antimigratory activity in human Hep3B cells assessed as inhibition of VEGF-induced migration at 0.8 to 20 uM by real time cell analysis. Format: functional, cell-based.
Series [7] is described as follows: Acute toxicity in iv dosed Swiss mouse. The following applies: in vivo. It counts as organism-based.
Series [8] concerns HUVEC. The series is described as follows: Antiinvasive activity in HUVEC assessed as inhibition of VEGF-induced invasion after 30 mins by transwell assay. Format: functional, cell-based. The following applies: Homo sapiens.
A short description of series [9]: Cytotoxicity against human Hep3B cells at >20 uM after 12 hrs by MTT assay. Format: cell-based. The following applies: hep 3b2, 12 h.
In series [10] the test system is Mus musculus. Description: Toxicity in Balb/c nude mouse xenografted with human Hep3B cells assessed as change in body weight at 2.5 to 5 mg/kg, iv. It counts as organism-based, Hep 3B2. Further details: dose 2.5-5 mg/kg, route intravenous. The note with it: in vivo.
For series [11], the system named is Mus musculus. The series is described as follows: Acute toxicity in Swiss mouse assessed as structural abnormality in lung at 300 mg/kg, iv after 14 days by histological analysis relative to control. Format: organism-based. Further details: dose 300 mg/kg, route intravenous. The following applies: in vivo, 336 h.
The nature of series [12]: Acute toxicity in Swiss mouse assessed as mortality rate at 300 mg/kg, iv after 14 days relative to control. It counts as organism-based. Further details: dose 300 mg/kg, route intravenous. The note with it: in vivo.
The subject of series [13] is Hep 3B2. The series is described as follows: Antitumor activity against human Hep3B cells xenografted in Balb/c nude mouse assessed as reduction in microvessel density at 2.5 to 5 mg/kg, iv by immunohistochemical analysis. It counts as functional, organism-based.
A short description of series [14]: Reduction of hypoxia-induced HIF-1 beta expression in human Hep3B cells after 48 hrs by Western blotting analysis. Format: functional, cell-based. The note with it: Hep 3B2.
The nature of series [15]: Reduction of hypoxia-induced HIF-1 alpha expression in human Hep3B cells after 48 hrs by Western blotting analysis. It counts as functional, cell-based. The following applies: Hep 3B2.
In series [16] the test system is Mus musculus. Description: Acute toxicity in Swiss mouse assessed as structural abnormality in kidney at 300 mg/kg, iv after 14 days by histological analysis relative to control. Further details: dose 300 mg/kg, route intravenous. The note with it: in vivo, 336 h. Format: organism-based.
For series [17], the system named is Hep 3B2. Description: Antitumor activity against human Hep3B cells xenografted in iv dosed Balb/c nude mouse assessed as inhibition of tumor growth after 11 days. Format: functional, organism-based.
Series [18] can be described thus: Acute toxicity in Swiss mouse assessed as mortality rate at 100 mg/kg, iv after 14 days relative to control. It counts as organism-based. The arrangement: dose 100 mg/kg, route intravenous. The note with it: in vivo.
Series [19] concerns HUVEC. The series is described as follows: Antiangiogenic activity in HUVEC assessed as inhibition of VEGF-induced tube formation after 30 mins by matrigel assay. It counts as functional, cell-based. The following applies: Homo sapiens.
Series [20] is described as follows: Reduction of hypoxia-induced VEGF expression in human Hep3B cells after 48 hrs by Western blotting analysis. Format: functional, cell-based. The note with it: Hep 3B2.
Series [21] deals with HUVEC. The series is described as follows: Cytotoxicity against HUVEC at >20 uM after 12 hrs by MTT assay. It counts as cell-based. The following applies: human.
The test system of series [22] is Hep 3B2. The series is described as follows: Antiinvasive activity in human Hep3B cells assessed as inhibition of VEGF-induced invasion after 30 mins by transwell assay. Format: functional, cell-based.
Series [23] concerns HUVEC. Description: Antimigratory activity in HUVEC assessed as inhibition of VEGF-induced migration at 0.8 to 20 uM by real time cell analysis. It counts as functional, cell-based. The note with it: Homo sapiens.

In the case of `CC[C@@]1(O)C(=O)OCc2c1cc1n(c2=O)Cc2cc3c(CN(C)C)c(O)ccc3nc2-1`, the result in [1] and in series [2] was Active.

`COc1ccc(/C=C/C(=O)c2ccc3c(c2O)C=CC(C)(C)O3)cc1O`: the Activity entry is “Dose-dependent effect” in series [3]; “Dose-dependent effect” in the series on HUVEC [8]; “Non-toxic” in series [9]; “Non-toxic” with Mus musculus [10]; “Non-toxic” with Mus musculus [11]; “Dose-dependent effect” in [14]. Besides, the Activity entry in series [15] is “Dose-dependent effect”; with Mus musculus [16], “Non-toxic”; in [20], “Dose-dependent effect”; in the series with HUVEC [21], “Non-toxic”; with Hep 3B2 [22] it was “Dose-dependent effect”. The result with Hep 3B2 [4], in the series with Hep 3B2 [6], in the series with Hep 3B2 [13] and in the series with HUVEC [23] was Active. For the same molecule, the mortality at 336 h in series [5] amounted to 0%; in [12], 16.7%; in series [18] it was 0%. In [7], the MTD worked out at 22 mg/kg. For the same molecule, the inhibition result in the series with Hep 3B2 [17] and in the series with HUVEC [19] was “Dose-dependent effect” throughout.
